Reference: patent publication US5668165A, “Small molecule inhibition of RNA/ligand binding” (Scriptgen Pharmaceuticals, Inc., priority 1995, dated 1997)
Entries after “also recorded” stand apart in the source; their conditions may differ. Where two headings read alike, the source gives them in different places. Starred links: 1 amine or outer side, 2 acyl side, 3 side chain; linkers in the order of their positions; H or OH if unused. Positions of bridges follow the written chain, without caps; N, C: chain ends. Non-standard residues stand in square brackets, D forms with d. Residues, ends and D or L forms follow the SMILES beside them. *: point of attachment. X1 = NC1=N[C@@H]([C@H](N[*:1])C(=O)[*:2])C[C@H](O)N1; ΔAla(Z-3-ureido) = NC(=O)N/C=C(\N)C(=O)O; β3hOrn = NCCC[C@H](N)CC(=O)*; Dap = NC[C@H](N)C(=O)O

What was measured:
[1] = test system: binding of Rev to the RRE (67-nt RNA probe containing a high affinity Rev-binding site); set-up: species or system HIV; details: for concentration at which inhibitory to Rev binding: third group of aminoglycosides; for inhibiting the binding of Rev to the RRE: Rev/RRE binding inhibition assay, summary of thirteen 2-DOS aminoglycosides; for ability to inhibit Rev binding (inhibitory at any concentration tested): 67-nt 32P-labeled RNA probe, gel mobility shift
Experimental: To test whether antibiotics can block binding of Rev to the RRE, a 67-nt ^32 P-labeled RNA probe containing a high affinity Rev-binding site was incubated with purified E. coli derived Rev protein in the presence of various antibiotics. Binding of Rev to the RNA probe was quanitified by an RNA gel mobility shift assay.

[2] = molecular target: T1, binding of HIV Rev protein to the HIV RRE (Human immunodeficiency virus type 1 group M subtype B, UniProt P04618); assay: Rev-RRE nitrocellulose filter-binding assay
T1 construct: made in house; host or cells: E. coli
T1 sequence (P04618 whole entry, looked up): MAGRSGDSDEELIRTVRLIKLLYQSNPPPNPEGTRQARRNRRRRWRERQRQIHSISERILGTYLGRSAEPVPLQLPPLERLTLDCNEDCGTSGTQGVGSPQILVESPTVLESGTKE
Experimental: A 69-nt ^32 P-labelled RNA probe containing a high affinity Rev-binding site (Bartel et al., Cell 67:529, 1991 ) was incubated with purified E. coli-derived Rev protein in the absence and presence of increasing concentrations of Compound 15. Reactions conditions were those that maximize the specificity of the interaction between Rev and the RRE, i.e., 150 mM KCl and a 100-fold molar excess of tRNA.
After a 30-minute incubation at room temperature, a nitrocellulose filter-binding assay was performed to quantify the binding of Rev to the RRE (Daly et al., Biochem. 32:10497, 1993). In this assay, RNA is retained on the filter only by virtue of binding to Rev. Filter-associated radioactivity was quantified in a Wallac Microbeta counter. The fraction of input RNA retained on the filter was plotted as a function of Compound 15 concentration, and the IC50 (the concentration required to inhibit 50% Rev-RRE binding) was determined by linear regression.

[3] = Table 2, 2,5-Bis(3-amidinophenyl)furans, read-out: IC50 against Rev/RRE binding
[4] = Table 3, 2,5-Bis(3-bisamidinophenyl)thiophene, read-out: IC50 against Rev/RRE binding
[5] = Table 3, 2,5-Bis(3-bisamidinophenyl)thiophene

gentamicin C
concentration at which inhibitory to Rev binding ([1]; 67-nt RNA probe): 100 μm | inhibiting the binding of Rev to the RRE [1]: effective

CCN(CC)CCCNC(=N)c1cccc(-c2ccc(-c3cccc(C(=N)NCCCN(CC)CC)c3)o2)c1 [Example 16, 2,5-Bis[3-N,N-diethylaminopropylamidinophenyl]furan]
IC50 [2, 3]: 750 nM

NC[C@H]1O[C@H](O[C@H]2[C@H](O[C@@H]3O[C@H](CO)[C@@H](O)[C@H]3O)[C@@H](O)[C@H](N)C[C@@H]2N)[C@H](N)[C@@H](O)[C@@H]1O [ribostamycin]
concentration at which inhibitory to Rev binding ([1]; 67-nt RNA probe): 100 μm | inhibiting the binding of Rev to the RRE [1]: effective

chromomycin A
ability to inhibit Rev binding (inhibitory at any concentration tested) [1]: no

NC[C@H]1O[C@H](O[C@H]2[C@H](O)[C@@H](O[C@H]3O[C@H](CO)[C@@H](O)[C@H](N)[C@H]3O)[C@H](N)C[C@@H]2N)[C@H](N)[C@@H](O)[C@@H]1O [kanamycin B]
concentration at which inhibitory to Rev binding ([1]; 67-nt RNA probe): 100 μm | inhibiting the binding of Rev to the RRE [1]: effective

CC1(C)S[C@@H]2[C@H](NC(=O)[C@H](N)c3ccccc3)C(=O)N2[C@H]1C(=O)O [ampicilin]
ability to inhibit Rev binding (inhibitory at any concentration tested) [1]: no

CN(C)[C@@H]1C(=O)C(C(N)=O)=C(O)[C@@]2(O)C(=O)C3=C(O)c4c(O)cccc4[C@@](C)(O)[C@H]3C[C@@H]12 [tetracycline]
ability to inhibit Rev binding (inhibitory at any concentration tested) [1]: no

CN[C@H]1C[C@@H](N)[C@H](O)[C@@H](O[C@@H]2O[C@H](CO)[C@H](O)[C@@H]3OC4(O[C@H]23)O[C@H]([C@@H](N)CO)[C@H](O)[C@H](O)[C@H]4O)[C@@H]1O (stereo partly drawn) [hygromyoin B, hygromycin B]
ability to inhibit Rev binding (inhibitory at any concentration tested) [1]: no inhibitory activity at any concentration tested

O=C(N[C@H](CO)[C@H](O)c1ccc([N+](=O)[O-])cc1)C(Cl)Cl [chloramphenicol]
ability to inhibit Rev binding (inhibitory at any concentration tested) [1]: no

CN(C)CCCNC(=N)c1cccc(-c2ccc(-c3cccc(C(=N)NCCCN(C)C)c3)o2)c1 [Example 15, 2,5-Bis [3-(3-N,N-dimethylaminopropylamidino)phenyl]furan]
IC50 ([2]; FIG. 2, 150 mM KCl, 100-fold molar excess of tRNA, read-out: IC50 (concentration required to inhibit 50% Rev-RRE binding)): 1000 nM

NCC[C@H](O)C(=O)N[C@@H]1C[C@H](N)[C@@H](O[C@H]2O[C@H](CN)[C@@H](O)[C@H](O)[C@H]2O)[C@H](O)[C@H]1O[C@H]1O[C@H](CO)[C@@H](O)[C@H](N)[C@H]1O [amikacin]
concentration at which inhibitory to Rev binding ([1]; 67-nt RNA probe): 100 μm | inhibiting the binding of Rev to the RRE [1]: effective

CCC[C@@H]1C[C@@H](C(=O)N[C@@H]([C@H]2O[C@H](SC)[C@H](O)[C@@H](O)[C@H]2O)[C@H](C)Cl)N(C)C1 [clindamycin A]
ability to inhibit Rev binding (inhibitory at any concentration tested) [1]: no

Cn1cc(NC(=O)c2cc(NC(=O)c3cc(NC=O)cn3C)cn2C)cc1C(=O)NCCC(=N)N [distamycin A]
ability to inhibit Rev binding (inhibitory at any concentration tested) [1]: no

CN1CCCC1CCNC(=N)c1cccc(-c2ccc(-c3cccc(C(=N)NCCC4CCCN4C)c3)s2)c1 (stereo not drawn) [Example 21, 2,5-Bis{3-[2-(1-methyl-2-pyrrolidinyl)ethylamidino]phenyl}thiophene]
IC50 [2, 4]: 2400 nM

NC[C@@H]1O[C@H](O[C@H]2[C@@H](O)[C@H](O[C@@H]3[C@@H](O)[C@H](N)C[C@H](N)[C@H]3O[C@H]3O[C@H](CO)[C@@H](O)C[C@H]3N)O[C@@H]2CO)[C@H](N)[C@@H](O)[C@@H]1O[C@H]1O[C@H](CO)[C@@H](O)[C@H](O)[C@@H]1O [lividomycin A]
ability to inhibit Rev binding (inhibitory at any concentration tested) [1]: significant inhibitory ability | concentration that achieves inhibition of Rev binding ([1]; 67-nt RNA probe, neomycin B: complete inhibition): 10 µM | inhibiting the binding of Rev to the RRE [1]: exceptional inhibitory potential

CN[C@@H]1[C@H](O)[C@H](NC)[C@H]2O[C@@]3(O)C(=O)C[C@@H](C)O[C@H]3O[C@@H]2[C@H]1O [specitinomycin]
ability to inhibit Rev binding (inhibitory at any concentration tested) [1]: no inhibitory activity at any concentration tested | ability to inhibit Rev binding (inhibitory at any concentration tested) ([1]; listed as spectinoymycin): inactive

butirosin
ability to inhibit Rev binding (inhibitory at any concentration tested) [1]: no inhibitory activity at any concentration tested

NC[C@H]1O[C@H](O[C@H]2[C@H](O)[C@@H](O)[C@H](N)C[C@@H]2N)[C@H](N)[C@@H](O)[C@@H]1O [neamine]
concentration at which inhibitory to Rev binding ([1]; 67-nt RNA probe): 100 μm | inhibiting the binding of Rev to the RRE [1]: effective

CN[C@@H]1[C@@H](O)[C@@H](O[C@@H]2[C@@H](O)[C@H](O[C@H]3OC(CN)=CC[C@H]3N)[C@@H](N)C[C@H]2N)OC[C@]1(C)O [sisomicin]
concentration at which inhibitory to Rev binding ([1]; 67-nt RNA probe): 100 μm | inhibiting the binding of Rev to the RRE [1]: effective

CN(C)CCCCCCNC(=N)c1cccc(-c2ccc(-c3cccc(C(=N)NCCCCCCN(C)C)c3)o2)c1 [Example 18, 2,5-Bis[3-(6-N,N-dimethylaminohexylamidino)phenyl]furan]
IC50 [2, 3]: 3900 nM

CCN(CC)CCCNC(=N)c1cccc(-c2ccc(-c3cccc(C(=N)NCCCN(CC)CC)c3)s2)c1 [Example 22, 2,5-Bis-[3-(3-N,N-diethylaminopropyl-amidino)phenyl]thiophene]
IC50 [2, 4]: 2800 nM

N=C(NCc1cccnc1)c1cccc(-c2ccc(-c3cccc(C(=N)NCc4cccnc4)c3)s2)c1 [Example 20, 2,5-Bis[3-pyridylmethylamidinophenyl]thiophene]
IC50 against Rev/RRE binding [2, 5]: not active

tunicamycin
ability to inhibit Rev binding (inhibitory at any concentration tested) [1]: no

NC[C@@H]1O[C@H](O[C@H]2[C@@H](O)[C@H](O[C@@H]3[C@@H](O)[C@H](N)C[C@H](N)[C@H]3O[C@H]3O[C@H](CO)[C@@H](O)[C@H](O)[C@H]3N)O[C@@H]2CO)[C@H](N)[C@@H](O)[C@@H]1O [paromomycin]
ability to inhibit Rev binding (inhibitory at any concentration tested) [1]: no inhibitory activity at any concentration tested; also recorded: completely inactive

[H]/N=C(/N)N[C@H]1[C@H](O)[C@@H](O)[C@H](O[C@@H]2O[C@@H](C)[C@](O)(C=O)[C@H]2O[C@@H]2O[C@@H](CO)[C@H](O)[C@@H](O)[C@@H]2NC)[C@@H](N/C(N)=N\[H])[C@@H]1O [stretomycin, streptomycin]
ability to inhibit Rev binding (inhibitory at any concentration tested) [1]: no inhibitory activity at any concentration tested | ability to inhibit Rev binding (inhibitory at any concentration tested) ([1]; listed as streptomycin): inactive

CN(C)CCCCNC(=N)c1cccc(-c2ccc(-c3cccc(C(=N)NCCCCN(C)C)c3)o2)c1 [Example 17, 2,5-Bis[3-(4-N,N-dimethylaminobutyl-amidino)phenyl]furan]
IC50 [2, 3]: 1700 nM

CC1(C)S[C@@H]2[C@H](NC(=O)C(C(=O)O)c3ccccc3)C(=O)N2[C@H]1C(=O)O (stereo partly drawn) [carbenicilin]
ability to inhibit Rev binding (inhibitory at any concentration tested) [1]: no

C[C@H]1O[C@H](O[C@H]2[C@H](O)[C@@H](O)[C@@H](O)[C@H](O)[C@@H]2O)[C@@H](N)C[C@@H]1NC(=N)C(=O)O [kasugamycin]
ability to inhibit Rev binding (inhibitory at any concentration tested) [1]: no inhibitory activity at any concentration tested

thiostreption
ability to inhibit Rev binding (inhibitory at any concentration tested) [1]: no

NCCC[C@H](N)CC(=O)N[C@H]1CNC(=O)[C@H]([C@H]2C[C@H](O)NC(N)=N2)NC(=O)/C(=C/NC(N)=O)NC(=O)[C@H](CO)NC(=O)[C@H](CO)NC1=O [viomycin] (β3hOrn-[Dap]SS[ΔAla(Z-3-ureido)][X1]; lactam 1-C)
ability to inhibit Rev binding (inhibitory at any concentration tested) [1]: no

CN[C@@H]1[C@H](O[C@H]2[C@H](O[C@H]3[C@H](O)[C@@H](O)[C@H](NC(=N)N)[C@@H](O)[C@@H]3NC(=N)N)O[C@@H](C)[C@]2(O)CO)O[C@@H](CO)[C@H](O)[C@H]1O [dihydrostreptomycin]
ability to inhibit Rev binding (inhibitory at any concentration tested) [1]: no inhibitory activity at any concentration tested

c1cc(C2=NCCN2)cc(-c2ccc(-c3cccc(C4=NCCN4)c3)o2)c1 [Example 19, 2,5-Bis(3-imidazolinophenyl)furan]
IC50 [2, 3]: 4000 nM

N=C(NN1CCOCC1)c1cccc(-c2ccc(-c3cccc(C(=N)NN4CCOCC4)c3)s2)c1 [Example 24, 2,5-Bis[3-(4-morpholinoamidino)phenyl]thiophene]
IC50 against Rev/RRE binding [2, 5]: not active

vineomycin
ability to inhibit Rev binding (inhibitory at any concentration tested) [1]: no

capreomycin
ability to inhibit Rev binding (inhibitory at any concentration tested) [1]: no

CCC[C@@H]1C[C@@H](C(=O)N[C@@H]([C@H]2O[C@H](SC)[C@H](O)[C@@H](O)[C@H]2O)[C@@H](C)O)N(C)C1 [lincomycin]
ability to inhibit Rev binding (inhibitory at any concentration tested) [1]: no

olivomycin
ability to inhibit Rev binding (inhibitory at any concentration tested) [1]: no

CC[C@H]1OC(=O)[C@H](C)[C@@H](O[C@H]2C[C@@](C)(OC)[C@@H](O)[C@H](C)O2)[C@H](C)[C@@H](O[C@@H]2O[C@H](C)C[C@H](N(C)C)[C@H]2O)[C@](C)(O)C[C@@H](C)C(=O)[C@H](C)[C@@H](O)[C@]1(C)O [erythromycin]
ability to inhibit Rev binding (inhibitory at any concentration tested) [1]: no
